From patent US20190018003A1, “TUMOR DISCRIMINATION METHOD, DIAGNOSTIC AGENT FOR TUMOR, AND SENSITIZER FOR TUMOR DIAGNOSIS” (TOTO LTD., priority 2017, published 2019)

System: UM-UC-3 urinary bladder cancer cells
Experiment: Fluorescence enhancement in UM-UC-3 cells detected by optical spectral detector (635 nm)
Type: cell-based, human
Conditions: Example 17, ALA 2 mmol/l, particles 0.001 w/v %, 405 nm excitation, 635 nm detection, immediately after light irradiation
From the text: An aqueous ALA solution (50 mmol/l) was mixed into an E-MEM medium (ATCC-formulated Eagle's Minimum Essential Medium (ATCC)) to form a 2 mmol/l ALA solution. Further, aqueous solutions of light scattering particles (2) (ii) and 3 (ii) were mixed into an E-MEM medium to respectively form a light scattering particle solution having a concentration of 0.001 w/v %.
The medium of the UM-UC-3 cells on a 6-well plate, obtained in Example 3, was removed by an aspirator, and evaluation thereof was performed under the same conditions as in Example 5 and the solution was used for detection.
Detection was performed by using an optical spectral detector (USB 2000, a small sized fiber optical spectroscope, Ocean Optics) at room temperature in a dark place. […] Fluorescence generated therefrom was passed through a collimate lens disposed on the upper surface in a 50° direction, the collimate lens having a focal distance of 10.9 mm and a numerical aperture of 0.25 (F220SMA-A, Thorlabs) and, further, through an optical fiber (M59L01, Thorlabs) of φ=1 mm and a numerical aperture of 0.5, and was detected by the above optical spectral detector. […] And, by obtaining a difference in each measurement sample by subtracting the background intensity value from an intensity value of the measurement sample at a wavelength of 635 nm, the fluorescence detection intensity was calculated. […]

NCC(=O)CCC(=O)O [fluorescent dye, 5-aminolevulinic acid]
Relative detected fluorescence intensity: 1.0
